Experimental data reported in ChEMBL document CHEMBL5370522, “Anti-inflammatory efficacy and relevant SAR investigations of novel chiral pyrazolo isoquinoline derivatives: Design, synthesis, in-vitro, in-vivo, and computational studies targeting iNOS” (Eur J Med Chem, 2023).
pIC50: −log10 of the molar value. Calls of active or inactive are those of the source. No cut-off for these calls is given here.

Columns and labels:
[1] = tested on: RAW264.7; assay: Anti inflammatory activity in LPS-induced mouse RAW264.7 cells assessed as inhibition of NO production preincubated with LPS for 4 hrs followed by compound addition and measured after 18 hrs by griess reagent based assay; assay type: functional, cell-based; settings: for Activity: dose 5-80 µM
[2] = tested on: RAW264.7; assay: Cytotoxicity against mouse RAW264.7 cells assessed as reduction in cell viability at 1 to 40 uM incubated for 24 hrs by MTT assay; assay type: toxicity, cell-based; settings: raw264.7, 24 h, dose 1-40 µM
[3] = tested on: RAW264.7; assay: Anti inflammatory activity in LPS-induced mouse RAW264.7 cells assessed as inhibition of NO production at 80 uM preincubated with LPS for 4 hrs followed by compound addition and measured after 18 hrs by griess reagent based assay; assay type: functional; design: scale not given: the % may be the effect or the level left
[4] = Cytotoxicity against mouse RAW264.7 cells assessed as cell survival rate at 100 uM incubated for 24 hrs by MTT assay; assay type: toxicity, cell-based; settings: read-out: Activity
[5] = tested on: Mus musculus; assay: Antiinflammatory activity against xylene-induced ear edema mouse model assessed as swelling rate at 10 mg/kg, iv measured after 30 mins; assay type: functional; settings: 0.5 h
[6] = tested on: RAW264.7; assay: Anti inflammatory activity in LPS-induced mouse RAW264.7 cells assessed as reduction in iNOS expression at 5 to 80 uM measured for 24 hrs by Western blot analysis; assay type: functional, cell-based; settings: dose 5-80 µM

pIC50 [1] | SMILES | Activity [1] | Activity [2] | Activity [3] | viability at 24 h, 100 µM [4] | Activity [5] | Activity [6]
4.32 | Cc1ccc(S(=O)(=O)N2C(=O)[C@H](c3ccccc3)[C@H]3c4cccc(Br)c4C=CN32)cc1 | Dose-Dependent Effect | 90% | 90.52% | 92.3% |  | 
4.57 | COc1ccc([C@H]2C(=O)N(S(=O)(=O)c3ccc(C)cc3)N3C=Cc4c(Br)cccc4[C@H]23)cc1 | Dose-Dependent Effect |  | 84.9% | 91.7% |  | 
 | Cc1ccc(S(=O)(=O)N2C(=O)[C@H](c3ccc(F)cc3)[C@H]3c4ccccc4C=CN32)cc1 | Dose-Dependent Effect |  | 73.46% | 91.7% | 64.4% | 
 | Cc1ccc(-c2cc(C(F)(F)F)nn2-c2ccc(S(N)(=O)=O)cc2)cc1 [CELECOXIB] |  |  |  |  | 70.05% | 
4.47 | Cc1ccc(S(=O)(=O)N2C(=O)[C@H](c3cccc(F)c3)[C@H]3c4cccc(Br)c4C=CN32)cc1 | Dose-Dependent Effect |  |  |  |  | 
 | Cc1ccc(S(=O)(=O)N2C(=O)[C@H](c3cccc(Br)c3)[C@H]3c4cccc(Br)c4C=CN32)cc1 | Dose-Dependent Effect |  | 72.86% | 81.7% |  | 
4.68 | Cc1ccc(S(=O)(=O)N2C(=O)[C@H](c3ccc(Br)cc3)[C@H]3c4cccc(Br)c4C=CN32)cc1 | Dose-Dependent Effect | 90% | 91.61% | 92.9% |  | Active
 | Cc1ccc(S(=O)(=O)N2C(=O)[C@H](c3ccccc3F)[C@H]3c4cccc(Br)c4C=CN32)cc1 | Dose-Dependent Effect | 90% | 92.84% | 87.7% |  | 
4.32 | COc1ccc([C@H]2C(=O)N(S(=O)(=O)c3ccc(C)cc3)N3C=Cc4ccccc4[C@H]23)cc1 | Dose-Dependent Effect |  | 77.09% | 87% |  | 
